Results from patent US10083341B2, “Cellular activity quantification using labeled probes” (Oregon Health & Science University, priority 2014, dated 2018).
“Also recorded” adds a separate entry of the source. Where two headings read alike, the source gives them in different places.

What was measured:
[1] = tested on: MOLM-14 cells; assay: Inhibitory concentrations (IC50, IC12.5) of kinase inhibitor panel for MOLM-14 cells; assay type: cell-based, human; settings: concentration used for 48 h treatment
[2] = tested on: pCRKL, pSTAT5, and pSTAT3; assay: SC-QDP baseline phosphoheterogeneity of K562 cells after cell cycle synchronization; assay type: cell-based, human; settings: lovastatin-induced cell cycle synchronization, data not shown
From the text: (§1) SC-QDP phosphoprotein labeling. Cells were fixed, permeabilized and dispersed onto cover glass chambers (Lab-Tek; Nunc), or custom-made, multi-well cover glass chambers for high throughput assays. The cells in each well were blocked and treated with primary anti-phosphoprotein antibodies (pCRKL, pSTAT5, pSTAT3, pERK1/2, pAKT473; Cell Signaling Technology). The anti-CD34 antibody (Dako, USA) was used for selection of CD34+ primitive cells. […]
(§2) SC-QDP image acquisition. Cells were imaged with an inverted fluorescent microscope (Zeiss AxioObserver) equipped with high magnification objectives, QD filter sets (Semrock), and a Luca-R camera (Andor) suitable for detecting discrete QD fluorescence. […]
SC-QDP discrete QD counts in single cells. Levels of phosphoprotein activity were quantified in single cells using automated software imaging algorithms. […] Discrete QD fluorescence was detected, localized and tabulated on a per cell basis using automated algorithms written in MATLAB (Matlab). […] The output of these automated algorithms comprised total counts of detected and localized discrete QD fluorescent puncta in each single cell z-stack. […] The QDs were identified as discrete, non-aggregated units comprised of single or a few QDs, as confirmed by intensity profile measurements of QD fluorescence. […]

[3] = tested on: pCRKL; assay: SC-QDP discrete QD counting of pCRKL in K562 cells; assay type: cell-based, human; settings: pCRKL level divided by isotype control, untreated 11.4
Experimental: (§3) Cell culture and kinase inhibitor treatment. Primary mononuclear cells (MNCs) were isolated from peripheral blood or bone marrow of newly diagnosed, untreated patients with chronic phase CML. MNCs were isolated by centrifugation through a Ficoll gradient, and red blood cells were lysed with 1×ACK (0.15 M NH4Cl, 10 mM KHCO3, 0.1 mM EDTA). MNCs were grown in serum-free media consisting of IMDM supplemented with 20% BIT (Stem Cell Technologies), 40 μg/ml low-density lipoprotein (Sigma-Aldrich), 10^-6 M β-mercaptoethanol, and the following cytokines: 100 ng/ml SCF (Stem Cell Technologies), 100 ng/ml G-CSF, 20 ng/ml FLT3 ligand, 20 ng/ml IL-3, and 20 ng/ml IL-6 (Sigma-Aldrich). MNCs were grown at a density of 5×10^5 cells/ml at 37° C., 5% CO2, overnight in a humidified incubator before drug treatment. […]
as §2
(§4) SC-QDP discrete QD counts in single cells. Levels of phosphoprotein activity were quantified in single cells using automated software imaging algorithms. […]

[4] = tested on: pCRKL; assay: QD total (diffuse) fluorescence quantification of pCRKL in K562 cells; assay type: cell-based, human; settings: dasatinib-treated, untreated 1.1
Experimental: as §3, §2
Measurements of single-cell total fluorescence of QD and Alexa dyes were obtained for each cell by summing pixel values from all slices in a single z-stack corresponding to each cell and subtracting the global background value for each field of view from the image. […]

[5] = tested on: pCRKL; assay: SC-QDP pCRKL in single CD34+ cells from CML patients; assay type: cell-based, human; settings: dasatinib 100 nM, 4 h
Experimental: (§5) Cell culture and kinase inhibitor treatment. Primary mononuclear cells (MNCs) were isolated from peripheral blood or bone marrow of newly diagnosed, untreated patients with chronic phase CML. MNCs were isolated by centrifugation through a Ficoll gradient, and red blood cells were lysed with 1×ACK (0.15 M NH4Cl, 10 mM KHCO3, 0.1 mM EDTA). MNCs were grown in serum-free media consisting of IMDM supplemented with 20% BIT (Stem Cell Technologies), 40 μg/ml low-density lipoprotein (Sigma-Aldrich), 10^-6 M β-mercaptoethanol, and the following cytokines: 100 ng/ml SCF (Stem Cell Technologies), 100 ng/ml G-CSF, 20 ng/ml FLT3 ligand, 20 ng/ml IL-3, and 20 ng/ml IL-6 (Sigma-Aldrich). MNCs were grown at a density of 5×10^5 cells/ml at 37° C., 5% CO2, overnight in a humidified incubator before drug treatment. The CML (K562) and AML (MOLM-14) cell lines were grown in suspension culture, in RPMI with 10% fetal bovine serum (Invitrogen), 1% L-glutamine (100 mM), and 1% penicillin/streptomycin (100 μg/ml), in a humidified incubator at 37° C., 5% CO2.
K562 cells and MNCs were treated for 4 h with dasatinib, at a concentration of 100 nM unless otherwise specified. […].
as §1, §2, §4

[6] = tested on: pSTAT5; assay: SC-QDP pSTAT5 in single CD34+ cells from CML patients; assay type: cell-based, human; settings: five CML patients, dasatinib 100 nM, 4 h
Experimental: as §3, §2, §4

[7] = tested on: pERK; settings: MOLM-14 cells, 48 h
Experimental: as §5
(§6) K562 cells and MNCs were treated for 4 h with dasatinib, at a concentration of 100 nM unless otherwise specified.
(§7) SC-QDP phosphoprotein labeling. Cells were fixed, permeabilized and dispersed onto cover glass chambers (Lab-Tek; Nunc), or custom-made, multi-well cover glass chambers for high throughput assays. The cells in each well were blocked and treated with primary anti-phosphoprotein antibodies (pCRKL, pSTAT5, pSTAT3, pERK1/2, pAKT473; Cell Signaling Technology). The anti-CD34 antibody (Dako, USA) was used for selection of CD34+ primitive cells. […] After cells were incubated with secondary antibodies, they were washed in buffer solution and imaged.
(§8) SC-QDP image acquisition. Cells were imaged with an inverted fluorescent microscope (Zeiss AxioObserver) equipped with high magnification objectives, QD filter sets (Semrock), and a Luca-R camera (Andor) suitable for detecting discrete QD fluorescence. Data acquisition consisted of acquiring multiple fields of view randomly for each well of the multi-well chamber. The microscope was controlled by Micromanager (www.micro-manager.org/). […] Image acquisition was performed manually or by automated high-throughput scanning. For automated high-throughput scanning, a custom-written Java plugin for Micromanager was used that allows scanning of user-selected wells as well as random or user-selected areas within each well for DIC, and appropriate multiple quantum dot (QD) channels. The Java plugin also corrected slide tilt by determining the slide focal plane. Image focus at each well was verified and corrected manually if needed.
(§9) SC-QDP discrete QD counts in single cells. Levels of phosphoprotein activity were quantified in single cells using automated software imaging algorithms. Cell segmentation was first done manually and then was optimized for speed using an automated procedure. Automated cell segmentation comprised detecting the nucleus and plasma membrane using a threshold-based intensity algorithm and a membrane expansion cell segmentation algorithm (www.cellprofiler.org) of each cell. Discrete QD fluorescence was detected, localized and tabulated on a per cell basis using automated algorithms written in MATLAB (Matlab). Briefly, detection of discrete QD probes was accomplished in single-cell z-stacks by applying a spatial bandpass filter, detecting localized maxima, and calculating the position of each QD for each z-slice. […] The output of these automated algorithms comprised total counts of detected and localized discrete QD fluorescent puncta in each single cell z-stack.

[8] = tested on: pAKT; settings: MOLM-14 cells, 48 h
Experimental: as §5, §6, §7, §8, §9

Compound	IC12.5 ([1]; Homo sapiens) [µM]	IC50 ([1]; Homo sapiens) [nM]	IC12.5 [1] [µM]	also measured
COc1cc2ncnc(Nc3ccc(F)c(Cl)c3)c2cc1OCCCN1CCOCC1 [gefitinib]	2.25	–	–	–
Cc1ccc(C(=O)Nc2ccc(CN3CCN(C)CC3)c(C(F)(F)F)c2)cc1C#Cc1cnc2cccnn12 [ponatinib]	–	4	0.001	–
C=CC(=O)N1CCC[C@@H](n2nc(-c3ccc(Oc4ccccc4)cc3)c3c(N)ncnc32)C1 [ibrutinib]	0.4	1600	–	–
CC[C@H](C)C(=O)O[C@H]1C[C@@H](C)C=C2C=C[C@H](C)[C@H](CC[C@@H]3C[C@@H](O)CC(=O)O3)[C@H]21 [lovastatin]	–	–	–	baseline phosphoheterogeneity [2]: reduced this heterogeneity
CS(=O)(=O)CCNCc1ccc(-c2ccc3ncnc(Nc4ccc(OCc5cccc(F)c5)c(Cl)c4)c3c2)o1 [lapatinib]	2.25	9000	–	–
Cc1nc(Nc2ncc(C(=O)Nc3c(C)cccc3Cl)s2)cc(N2CCN(CCO)CC2)n1 [dasatinib]	–	400	0.1	pCRKL activity S/N ratio by QD counting ([3]; dasatinib 10 nM): 4.7; pCRKL activity S/N ratio by QD counting ([3]; dasatinib 100 nM): 2.3; pCRKL S/N ratio by QD total fluorescence [4]: 1.7; pCRKL inhibition (shift in peak of PDE curve) ([5]; CD34+ cells of five CML patients): ~1.8 fold; frequency of dasatinib-resistant CD34+ cells, alternative threshold (pCRKL greater than mean untreated − 0.5σ untreated) ([5]; five CML patients): 8.5-53.9%; frequency of dasatinib-resistant CD34+ cells (pCRKL equal to or greater than mean of untreated CD34+ cells) ([5]; five CML patients, of total dasatinib-treated cell population): 5.4-9.9%; resistant CD34+ cell population (pSTAT5 greater than mean pSTAT5 of untreated CD34+ cells) [6]: 17-37%
C#Cc1cccc(Nc2ncnc3cc(OCCOC)c(OCCOC)cc23)c1 [erlotinib]	1.75	7000	–	overall shift of pERK PDE curve [7]: left-shift; percentage of resistant cells (pERK equal to or greater than mean pERK of untreated cells) ([7]; IC50 concentration (FIG. 5C legend)): 36%; pERK phosphoresponse ([7]; at IC12.5): phosphoinhibition; pERK phosphoresponse ([7]; at IC50): phosphoactivation; overall shift of pAKT PDE curve [8]: left-shift; pAKT phosphoresponse ([8]; at IC12.5): phosphoinhibition; also recorded: inhibition of pAKT; pAKT phosphoresponse ([8]; at IC50): phosphoactivation; also recorded: pAKT activation
CO[C@H]1C[C@@H]2CC[C@@H](C)[C@@](O)(O2)C(=O)C(=O)N2CCCC[C@H]2C(=O)O[C@H]([C@H](C)C[C@@H]2CC[C@@H](O)[C@H](OC)C2)CC(=O)[C@H](C)/C=C(\C)[C@@H](O)[C@@H](OC)C(=O)[C@H](C)C[C@H](C)/C=C/C=C/C=C/1C [rapamycin]	–	20	0.005	–
C[C@@H](Oc1cc(-c2cnn(C3CCNCC3)c2)cnc1N)c1c(Cl)ccc(F)c1Cl [crizotinib]	0.45	1800	–	–
CNC(=O)c1ccccc1Sc1ccc2c(/C=C/c3ccccn3)n[nH]c2c1 [axitinib]	–	–	0.025	–
Cc1cn(-c2cc(NC(=O)c3ccc(C)c(Nc4nccc(-c5cccnc5)n4)c3)cc(C(F)(F)F)c2)cn1 [nilotinib]	2.25	9000	–	–
COc1cc2c(Nc3ccc(Br)cc3F)ncnc2cc1OCC1CCN(C)CC1 [vandetanib]	0.9	3600	–	–
Cc1ccc(NC(=O)c2ccc(CN3CCN(C)CC3)cc2)cc1Nc1nccc(-c2cccnc2)n1 [imatinib]	2.5	–	–	–
CNC(=O)c1cc(Oc2ccc(NC(=O)Nc3ccc(Cl)c(C(F)(F)F)c3)cc2)ccn1 [sorafenib]	–	8	0.002	–
Cc1ccc(Nc2nccc(N(C)c3ccc4c(C)n(C)nc4c3)n2)cc1S(N)(=O)=O [pazopanib]	0.5	2000	–	–
CCN(CC)CCNC(=O)c1c(C)[nH]c(/C=C2\C(=O)Nc3ccc(F)cc32)c1C [sunitinib]	–	12	0.003	–
N#CC[C@H](C1CCCC1)n1cc(-c2ncnc3[nH]ccc23)cn1 [ruxolitinib]	2.5	10000	–	–
